Laboratory results taken from the NIST ThermoML archive (doi:10.1016/j.fluid.2013.12.017).

Test: molar heat capacity at constant pressure
Conditions: 101 kPa, Liquid, Small sample (50 mg) DSC

CCC(N)(CO)CO [2-amino-2-ethyl-1,3-propanediol]
Conditions | molar heat capacity at constant pressure [J/K/mol]
303.15 K | 367.5
308.15 K | 370.5
313.15 K | 374.1
318.15 K | 378
323.15 K | 381.5
328.15 K | 385.8
333.15 K | 389.9
338.15 K | 393.9
343.15 K | 398.6
348.15 K | 403.1
353.15 K | 408.2
